{"source": "patent US4325970A", "about": "“15-Acetyl-prostaglandins” (Hoffmann-La Roche Inc., priority 1980, dated 1982)", "tested_on": "gastric secretion", "experiment": "gastric secretory depressant test in the unanesthetized rat with acute gastric fistula (acid concentration, acid output, pH)", "assay_type": "in vivo", "conditions": "for % Inhibition, acid concentration (S.E.M.) / % Inhibition, acid output (S.E.M.): 10 μg/kg b.w. I.G.", "description": "were tested as gastric secretory depressants in the unanesthesized rat with acute gastric fistula by the following procedure:\nDuring this baseline period, the pH of the secretory flow was about 1.5 for each animal. Individual samples were collected at 10-minute intervals during this baseline period to monitor the pH. The compounds dissolved in polyethylene glycol-400 were administered intragastrically (I.G.) after this baseline period and samples were continuously collected for up to 180 minutes. The samples of gastric contents were subsequently assayed for volume, total acid concentration (μEq/ml) and total acid output for 10 minutes (μEq/10 minutes).\nIn addition to intragastric (I.G.) dosages, the activity of these compounds was tested for intraduodenal (I.D.) and intravenous administration (I.V.) to unanesthetized rats with acute gastric fistula as described above. For I.D. administration, the compounds were dissolved in polyethylene glycol-400. On the other hand, a trimethylolnitro-methane/ethanol solution was used for I.V. dosing. […] With this dose and route of administration of Compound A, a pronounced effect on pH was seen, an average increase of 3.1 pH units over 3 hours post administration. With the I.G. dose of Compound A of 5 μg/Kg b.w., an average increase of 1.6 pH units occurred. […] The antisecretory effect of Compound A seen after I.V. administration (10 μg/Kg b.w.) was low, amounting to about 1/4 to 1/5 that seen following I.G. dosage of Compound A. With the I.V. route of administration at this dose of Compound A (10 μg/Kg b.w.) effect on pH was minimal, 1/10 to 1/20 that seen after I.G. administration of an identical dose of Compound A.", "key": {"[1]": {"conditions": "20 minutes after administration"}, "[2]": {"conditions": "30 minutes after administration"}, "[3]": {"conditions": "40 minutes after administration"}, "[4]": {"conditions": "50 minutes after administration"}, "[5]": {"conditions": "60 minutes after administration"}, "[6]": {"conditions": "70 minutes after administration"}, "[7]": {"conditions": "80 minutes after administration"}, "[8]": {"conditions": "90 minutes after administration"}, "[9]": {"conditions": "100 minutes after administration"}, "[10]": {"conditions": "110 minutes after administration"}, "[11]": {"conditions": "120 minutes after administration"}, "[12]": {"conditions": "130 minutes after administration"}, "[13]": {"conditions": "140 minutes after administration"}, "[14]": {"conditions": "150 minutes after administration"}, "[15]": {"conditions": "160 minutes after administration"}, "[16]": {"conditions": "170 minutes after administration"}, "[17]": {"conditions": "180 minutes after administration"}}}
{"smiles": "CCCCC(C)(C)[C@@H](/C=C/C1[C@H](C)CC(=O)[C@@H]1C/C=C\\CCCC(=O)O)OC(C)=O", "note": "(stereo in doubt) [Compound A, (8R,11R,12S,15R,5Z,13E)-15-acetyloxy-11,16,16-trimethyl-9-oxoprosta-5,13-dien-1-oic acid]", "values": [{"measurement": "duration of action", "setting": "5 μg/Kg I.G.", "value": 110, "unit": "min"}, {"measurement": "response in pH relative to that seen with the 10 μg/Kg b.w. dose of Compound A", "setting": "5 μg/Kg I.G. vs 10 μg/Kg I.G.", "value": "about 50%"}, {"measurement": "average increase of pH", "setting": "5 μg/Kg b.w. I.G.", "value": 1.6, "unit": "pH units"}, {"measurement": "effect on pH compared with 10 μg/Kg I.G. of Compound B", "setting": "5 μg/Kg b.w. I.G.", "value": "essentially equivalent to that of the 10 μg/Kg I.G. of Compound B"}, {"measurement": "duration of action", "setting": "10 μg/Kg I.G.", "value": 180, "unit": "min"}, {"measurement": "effect on acid concentration and output compared with I.G. dosage", "setting": "10 μg/Kg b.w. I.D.", "value": "no different to the I.G. dosage of Compound A"}, {"measurement": "effect on pH compared with I.G. route", "setting": "10 μg/Kg b.w. I.D.", "value": "much lower than by the I.G. route"}, {"measurement": "average increase of pH", "setting": "10 μg/Kg b.w. I.G. (printed 10 g/Kg), over 3 hours post administration", "value": 3.1, "unit": "pH units"}, {"measurement": "antisecretory effect", "setting": "10 μg/Kg b.w. I.V.", "value": "low"}, {"measurement": "effect on pH", "setting": "10 μg/Kg b.w. I.V.", "value": "minimal"}, {"measurement": "% Inhibition, acid concentration (S.E.M.)", "setting": "[1]", "value": "34 (16) %"}, {"measurement": "% Inhibition, acid output (S.E.M.)", "setting": "[1]", "value": "39 (14) %"}, {"measurement": "% Inhibition, acid concentration (S.E.M.)", "setting": "[2]", "value": "91 (9) %"}, {"measurement": "% Inhibition, acid output (S.E.M.)", "setting": "[2]", "value": "91 (9) %"}, {"measurement": "% Inhibition, acid concentration (S.E.M.)", "setting": "[3]", "value": "70 (14) %"}, {"measurement": "% Inhibition, acid output (S.E.M.)", "setting": "[3]", "value": "69 (17) %"}, {"measurement": "% Inhibition, acid concentration (S.E.M.)", "setting": "[4]", "value": "50 (17) %"}, {"measurement": "% Inhibition, acid output (S.E.M.)", "setting": "[4]", "value": "43 (20) %"}, {"measurement": "% Inhibition, acid concentration (S.E.M.)", "setting": "[5]", "value": "67 (21) %"}, {"measurement": "% Inhibition, acid output (S.E.M.)", "setting": "[5]", "value": "73 (17) %"}, {"measurement": "% Inhibition, acid concentration (S.E.M.)", "setting": "[6]", "value": "67 (21) %"}, {"measurement": "% Inhibition, acid output (S.E.M.)", "setting": "[6]", "value": "74 (17) %"}, {"measurement": "% Inhibition, acid concentration (S.E.M.)", "setting": "[7]", "value": "67 (21) %"}, {"measurement": "% Inhibition, acid output (S.E.M.)", "setting": "[7]", "value": "79 (16) %"}, {"measurement": "% Inhibition, acid concentration (S.E.M.)", "setting": "[8]", "value": "80 (20) %"}, {"measurement": "% Inhibition, acid output (S.E.M.)", "setting": "[8]", "value": "80 (20) %"}, {"measurement": "% Inhibition, acid concentration (S.E.M.)", "setting": "[9]", "value": "67 (20) %"}, {"measurement": "% Inhibition, acid output (S.E.M.)", "setting": "[9]", "value": "60 (25) %"}, {"measurement": "% Inhibition, acid concentration (S.E.M.)", "setting": "[10]", "value": "60 (24) %"}, {"measurement": "% Inhibition, acid output (S.E.M.)", "setting": "[10]", "value": "68 (20) %"}, {"measurement": "% Inhibition, acid concentration (S.E.M.)", "setting": "[11]", "value": "67 (20) %"}, {"measurement": "% Inhibition, acid output (S.E.M.)", "setting": "[11]", "value": "72 (20) %"}, {"measurement": "% Inhibition, acid concentration (S.E.M.)", "setting": "[12]", "value": "80 (19) %"}, {"measurement": "% Inhibition, acid output (S.E.M.)", "setting": "[12]", "value": "80 (20) %"}, {"measurement": "% Inhibition, acid concentration (S.E.M.)", "setting": "[13]", "value": "100 (0) %"}, {"measurement": "% Inhibition, acid output (S.E.M.)", "setting": "[13]", "value": "100 (0) %"}, {"measurement": "% Inhibition, acid concentration (S.E.M.)", "setting": "[14]", "value": "72 (17) %"}, {"measurement": "% Inhibition, acid output (S.E.M.)", "setting": "[14]", "value": "92 (5) %"}, {"measurement": "% Inhibition, acid concentration (S.E.M.)", "setting": "[15]", "value": "80 (16) %"}, {"measurement": "% Inhibition, acid output (S.E.M.)", "setting": "[15]", "value": "82 (18) %"}, {"measurement": "% Inhibition, acid concentration (S.E.M.)", "setting": "[16]", "value": "80 (15) %"}, {"measurement": "% Inhibition, acid output (S.E.M.)", "setting": "[16]", "value": "80 (20) %"}, {"measurement": "% Inhibition, acid concentration (S.E.M.)", "setting": "[17]", "value": "67 (33) %"}, {"measurement": "% Inhibition, acid output (S.E.M.)", "setting": "[17]", "value": "71 (29) %"}, {"measurement": "antisecretory effects", "setting": "I.G. dose 10 g/Kg [sic] b.w.", "value": "pronounced antisecretory effects"}, {"measurement": "duration of antisecretory effect", "setting": "I.G. dose 10 g/Kg [sic] b.w.", "value": "at least 3 hours"}, {"measurement": "duration of antisecretory effect compared with Compound B", "setting": "I.G. dose 10 g/Kg [sic] b.w.", "value": "significantly longer than that seen with Compound B"}]}
